From patent US4592997A, “Process for the detection of the presence of an allergy and for the specific detection of the allergen responsible for the allergy” (Boehringer Mannheim GmbH, priority 1982, dated 1986)
Peptide text beside a SMILES is read from it. * marks the point of attachment. pNA = O=[N+]([O-])c1ccc(N*)cc1; Tos = Cc1ccc(S(=O)(=O)*)cc1; Cbz = O=C(OCc1ccccc1)*

How the values were obtained:
[1] = tested on: new protease from leukocytes; assay: Specific inhibitability of the new protease from leukocytes; assay type: biochemical, human; conditions: new leukocyte protease
[2] = tested on: kallikrein-like protease from leukocytes; conditions: cited from earlier work
leukocytes = assay: Protease liberation from leukocytes by anti-IgE or allergen, measured with Chromozym TH (Example 1 method); assay type: cell-based, human; conditions: for allergy towards the substance shown with the process (in words): general statement
Protocol: 60 ml. venous blood of a healthy donor were carefully mixed with 30 ml. of a dextran mixture (dextran with average M.W. of 75000 2%; D-glucose 2%, EDTA 20 mmol/liter; gelatine 0.07%) in a polyethylene beaker and transferred to a siliconised separating funnel. After leaving to stand for 60 to 90 minutes at room temperature, the supernatant containing the leukocytes (about 50 ml.) was separated off and mixed with 50 ml. tris buffer mixture of pH 7.6 (tris 22 mmol/liter; sodium chloride 0.12 mol/liter; potassium chloride 5 mmol/liter; gelatine 0.05%; EDTA 1 mmol/liter; D-glucose 0.1%) and centrifuged for 15 minutes at 800 g. After decanting, the cells were washed twice in that, in each case, they were again suspended in 50 ml. of the same buffer mixture (pH 7.6) and, in each case, centrifuged for 15 minutes at 800 g. The cells were then suspended in 10 ml. of the same buffer mixture.
(§1) Two 0.9 ml. amounts of cell suspension were each transferred to a polyethylene test tube, mixed with 0.4 ml. tris buffer mixture (pH 7.6) and brought to 37° C. in a water-bath. To one sample, there was added 0.1 ml. of anti-IgE solution (Behring-Werke, No. OTNP 04/05, diluted 1:500 with tris buffer mixture; pH 7.6) and to the other sample (the control) there was pipetted 0.1 ml. of tris buffer mixture (pH 7.6) and to both samples there was added 0.1 ml. calcium chloride solution (4 mmol/liter in isotonic sodium chloride solution; pH 7.6). The two samples were kept for 60 minutes at 37° C., then each was mixed with 0.5 ml. ice-cold EDTA solution (0.1 mol/liter in isotonic sodium chloride solution; pH 7.6) and centrifuged for 10 minutes at 4° C., and at 30000 g, the supernatant being pipetted off immediately after stopping the centrifuge.
To 0.5 ml of the supernatant was added 0.5 ml. of 1.5 mmol/l. […] The extinction difference between the two samples was determined after 1, 2 and 3 hours at 405 nm.

[3] = tested on: protease liberated from leukocytes after anti-IgE stimulation; assay: Splitting of chromogenic substrates by the protease liberated from leukocytes; assay type: biochemical, human
Protocol: as §1
To 0.5 ml of the supernatant was added 0.5 ml. of 1.5 mmol/l. Chromozym TH solution (1 bottle BM 199664 dissolved in 5 ml. water). The extinction difference between the two samples was determined after 1, 2 and 3 hours at 405 nm.
From two 0.9 ml. amounts of leukocyte suspension obtained according to Example 1.1 from the blood of a healthy donor, there was obtained protease according to Example 1.2, after anti-IgE stimulation, as centrifuge supernatant. The testing of the protease took place as in Example 1.3 but in the case of one sample, instead of Chromozym TH, there was added an equimolar amount of CBO-Gly-Pro-Arg-pNA. Within the first 3 hours equal ΔE/h values (ΔE/h=0.067) were measured.
The activity of two samples treated in parallel according to Example 1 was determined with Chromozym TH and with an equimolar amount of Chromozym PL. With Chromozym PL, there was found ΔE/h=0.052 and with Chromozym TH ΔE/h=0.048.
The protease activity of two samples treated in parallel according to Example 1 was determined with Chromozym TH and with an equimolar amount of S 2238. With S 2238 there was determined ΔE/h=0.037 and with Chromozym TH ΔE/h=0.048.

[4] = Example 5, samples treated according to Example 1, equimolar substrate
[5] = Example 4, samples treated according to Example 1, equimolar substrate
[6] = Example 3, healthy donor, after anti-IgE stimulation, first 3 hours, equimolar substrate

For aprotinin [reference compound], the “specific inhibitability by aprotonin I50” value [1] is listed as 1 mg/mL and the “specific inhibitability by aprotinin I50” value ([2]; known kallikrein-like protease) is listed as “about 50 μg./ml”.

For `CC1(C)S[C@@H]2[C@H](NC(=O)[C@H](N)c3ccccc3)C(=O)N2[C@H]1C(=O)O` [ampicillin], the “additional extinction change ΔE/h versus unstimulated comparative sample” value (leukocytes; donor allergic to ampicillin) was 0.558 h⁻¹, the “measurement value ΔE/h of the stimulated sample” value (leukocytes; donor allergic to ampicillin, 0.9 ml. leukocyte suspension) was 0.893 h⁻¹ and the “allergy towards the substance shown with the process (in words)” value (leukocytes) was “demonstrated”.

With `NC(N)=NCCC[C@H](NC(=O)[C@@H]1CCCCN1C(=O)[C@H](N)Cc1ccccc1)C(=O)Nc1ccc([N+](=O)[O-])cc1` [S 2238, Phe-Pip-Arg-pNA] the “ΔE/h with the substrate” value [3, 4] was 0.037 h⁻¹.

With `Cc1ccc(S(=O)(=O)NCC(=O)N2CCC[C@H]2C(=O)N[C@@H](CCCCN)C(=O)Nc2ccc([N+](=O)[O-])cc2)cc1` [Chromozym PL, Tos-Gly-Pro-Lys-pNA] (Tos-Gly-Pro-Lys-pNA) the “ΔE/h with the substrate” value [3, 5] was 0.052 h⁻¹.

For `CC(=O)O.Cc1ccc(S(=O)(=O)NCC(=O)N2CCC[C@H]2C(=O)N[C@@H](CCCNC(=N)N)C(=O)Nc2ccc([N+](=O)[O-])cc2)cc1` [Chromozym TH, tosyl-glycyl-prolyl-arginine-p-nitroanilide acetate] (Tos-Gly-Pro-Arg-pNA), the “ΔE/h with the substrate” value [3, 6] was 0.067 h⁻¹, the “ΔE/h with the substrate” value [3, 5] was 0.048 h⁻¹ and the “ΔE/h with the substrate” value [3, 4] was 0.048 h⁻¹.

In the case of nickel, the “allergy towards the substance shown with the process (in words)” value (leukocytes) is reported as “demonstrated”.

For `N=C(N)NCCC[C@H](NC(=O)[C@@H]1CCCN1C(=O)CNC(=O)OCc1ccccc1)C(=O)Nc1ccc([N+](=O)[O-])cc1` [CBO-Gly-Pro-Arg-pNA, reference compound] (Cbz-Gly-Pro-Arg-pNA), the “ΔE/h with the substrate” value [3, 6] was 0.067 h⁻¹.

B1: soya bean trypsin inhibitor (protein, UniProt P01070 25-205, looked up)
Trypsin inhibitor A: DFVLDNEGNPLENGGTYYILSDITAFGGIRAAPTGNERCPLTVVQSRNELDKGIGTIISSPYRIRFIAEGHPLSLKFDSFAVIMLCVGIPTEWSVVEDLPEGPAVKIGENKDAMDGWFRLERVSDDEFNNYKLVFCPQQAEDDKCGDIGISIDHDDGTRRLVVSKNKPLVVQFQKLDKESL
For B1, the “inhibition by STI” value ([2]; 0.1 mole/l. STI) is listed as 11%.
